Experimental data from PubChem BioAssay (NCI).
“And” between values parts separate entries of the source, which are not always exact repeats. Identical values can stand only once.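 Cells were grown in 96-well plates and exposed to each compound for 48 hours at five concentrations; endpoints were interpolated linearly between bracketing concentrations, or set to the highest concentration if not reached. At the GI50, growth is halved. TGI is the concentration that stops growth completely.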

What was measured:
Experiment in all cases: inhibition of tumour cell growth, NCI panel, 48 h
A498 renal = test system: A498 renal
CAKI-1 renal = test system: CAKI-1 renal
CCRF-CEM leukemia = test system: CCRF-CEM leukemia
HL-60(TB) leukemia = test system: HL-60(TB) leukemia
NCI-H460 lung = test system: NCI-H460 lung
NCI-H522 lung = test system: NCI-H522 lung
SF-268 CNS = test system: SF-268 CNS
SK-MEL-2 melanoma = test system: SK-MEL-2 melanoma
SN12C renal = test system: SN12C renal
SW-620 colon = test system: SW-620 colon

SMILES | GI50 (A498 renal) [nM] | TGI (A498 renal) [µM] | GI50 (CAKI-1 renal) [µM] | TGI (CAKI-1 renal) [µM] | GI50 (CCRF-CEM leukemia) [nM] | TGI (CCRF-CEM leukemia) [µM] | GI50 (HL-60(TB) leukemia) | TGI (HL-60(TB) leukemia) | GI50 (NCI-H460 lung) | TGI (NCI-H460 lung) | GI50 (NCI-H522 lung) [nM] | TGI (NCI-H522 lung) [µM] | GI50 (SF-268 CNS) | TGI (SF-268 CNS) | GI50 (SK-MEL-2 melanoma) [µM] | TGI (SK-MEL-2 melanoma) [µM] | GI50 (SN12C renal) | TGI (SN12C renal) | GI50 (SW-620 colon) | TGI (SW-620 colon)
COc1cccc2c1C(=O)c1c(O)c3c(c(O)c1C2=O)C[C@@](O)(C(=O)COC(=O)c1cccnc1)C[C@@H]3OC1CC(N)C(O)C(C)O1 (stereo partly drawn) | 113 | 0.334 | 0.705 | 6.25 | 57.4 | 1.19 | 146 nM | 1.64 µM | 26.9 nM | 0.215 µM | 57.4 | 0.217 | 155 nM | 1.53 µM | 0.232 | 0.529 | 83 nM | 3.68 µM | 0.0605 µM | 2.17 µM
Cc1cc2cc(Oc3ccnc(Nc4cccc(CS(=O)(=O)NCCN(C)C)c4)n3)ccc2[nH]1 | 1040 | 4.19 | 3.31 | 16.6 | 3360 | 11.3 | 2240 nM | 6.17 µM | 4740 nM | 18.8 µM | 3690 | 14.7 | 3930 nM | 17.3 µM | 11.5 | 25.7 | 5810 nM | 19.2 µM | 7.99 µM | 23.5 µM
COc1ccc(-c2ccc(=O)oc2-c2cc(OC)c(OC)c(OC)c2)cc1O | 31.5 | > 77.6 | 0.0459 | > 100 | 21.9 | – | 20.8 nM | 0.0705 µM | 24.4 nM | – | 12.4 | 0.0944 | 60.6 nM | > 34.8 µM | 0.315 | > 100 | 69.7 nM | > 100 µM | < 0.0147 µM | > 100 µM
O=C(O)c1cc2c3c(c1)[C@H]1C=CC[C@H]1CN3CC1CC=CC21 (stereo partly drawn) | – | > 100 | – | > 100 | – | > 100 | – | > 100 µM | – | > 100 µM | – | > 100 | – | > 100 µM | – | > 100 | – | > 100 µM | – | > 100 µM
c1ccc(CN2CCC3(CC2)ONC2=NCCN23)cc1 | > 100000 | > 100 | 30.5 | > 100 | 31000 | > 100 | 35400 nM | > 100 µM | 86500 nM | > 100 µM | 37800 | > 100 | 89800 nM | > 100 µM | > 100 | > 100 | 27100 nM | 82 µM | 75 µM | > 100 µM
O=C1c2ccccc2C(=O)N1C/C=N/NS(=O)(=O)c1ccc(Cl)cc1 | – | > 100 | – | > 100 | – | > 100 | – | > 100 µM | – | > 100 µM | – | > 100 | – | > 100 µM | – | > 100 | – | > 100 µM | – | > 100 µM
CCOc1ccccc1N=C(NC(=O)CC)SC | > 100000 | > 100 | > 100 | > 100 | > 10000 | > 100 | > 100000 nM | > 100 µM | > 100000 nM | > 100 µM | > 100000 | > 100 | > 100000 nM | > 100 µM | > 10 | > 100 | > 10000 nM | > 100 µM | > 100 µM | > 100 µM
C/C(=C\c1ccccc1)C(O)S(=O)(=O)O (stereo not drawn) | – | > 100 | – | > 100 | – | > 100 | – | > 100 µM | – | > 100 µM | – | > 100 | – | > 100 µM | – | > 100 | – | > 100 µM | – | > 100 µM
CCCCCCCCCCCCCCCC[N+](C)(C)C | 1960 | 5.25 | 2.05 | 10.7 | 656 | 2.44 | 148 nM and 371 nM | 0.336 µM and 1.81 µM | 204 nM and 1240 nM | 0.412 µM and 2.81 µM | 139 | 0.329 | 177 nM and 1210 nM | 0.483 µM and 3.12 µM | 0.314 | 1.17 | 285 nM and 2060 nM | 1.07 µM and 4.56 µM | 0.239 µM and 1.31 µM | 0.859 µM and 2.97 µM
CC(=O)[CH-]C(=O)c1ccccc1.CC(=O)[CH-]C(=O)c1ccccc1.[O-]c1ccc(O)cc1.[O-]c1ccc(O)cc1.[Ti+4] | 18400 | 37.3 | 17 | 34.1 | 1910 | 7.49 | 3710 nM | 30.6 µM | 14200 nM | 44.6 µM | 1970 | 4.37 | 14000 nM | 33.9 µM | 14.6 | 28.2 | 14300 nM | 36.4 µM | 17 µM | 31.6 µM
CC(C)c1cccc2sc(NC(=O)C(=O)CC(=O)c3ccc(F)cc3)nc12 | – | > 100 | – | > 100 | – | > 100 | – | > 100 µM | – | > 100 µM | – | > 100 | – | > 100 µM | – | > 100 | – | > 100 µM | – | > 100 µM
